The results in this text go back to US8435978B2, “Substituted sulfonamide compounds” (Gruenenthal GmbH, priority 2006, dated 2013).

Assay [1] concerns the target T1, B1R receptor of the rat (Rattus norvegicus, UniProt P97583).
T1 construct: host or cells: CHO K1 cells (Chinese hamster ovary), stably transfected
T1 sequence (P97583 1-337): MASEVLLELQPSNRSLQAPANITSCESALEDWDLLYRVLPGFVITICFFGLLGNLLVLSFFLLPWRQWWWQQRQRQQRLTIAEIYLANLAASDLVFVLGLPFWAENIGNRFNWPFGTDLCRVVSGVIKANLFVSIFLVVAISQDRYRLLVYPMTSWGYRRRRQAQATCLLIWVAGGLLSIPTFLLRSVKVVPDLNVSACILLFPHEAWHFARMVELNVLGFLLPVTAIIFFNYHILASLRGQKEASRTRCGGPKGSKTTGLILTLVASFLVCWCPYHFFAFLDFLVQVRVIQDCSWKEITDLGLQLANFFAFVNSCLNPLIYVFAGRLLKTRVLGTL
Put plainly: Functional study on the bradykinin receptor 1 (B1R), FLIPR Ca2+ assay, rB1R cells. The class given is cell-based. The note with it: agonist Des-Arg9-bradykinin 100 nM, % inhibition compared with the maximum achievable inhibition; for inhibition at 10 µM: CHO-K1, test substance 10 μM, read-out: B1R Antagonism, rat [10 μM] % Inhibition; for B1R Antagonism, rat [10 μM] % Inhibition: test substance 10 μM, rB1R CHO K1 cells. The method, boiled down: (§1)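 CHO K1 cells stably expressing human or rat B1R, Fluo-4-loaded; test compound 10 μM added first (activation % vs agonist), then after 10 min 0.5 nM Lys-Des-Arg9-bradykinin (human) or 100 nM Des-Arg9-bradykinin (rat). Ca2+ peak fluorescence by FLIPR; % inhibition relative to maximum achievable inhibition.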

The target of assay [2] is T2, human B1R receptor (Homo sapiens, UniProt P46663).
T2 construct: host or cells: CHO K1 cells (Chinese hamster ovary), stably transfected
T2 sequence (P46663 1-353): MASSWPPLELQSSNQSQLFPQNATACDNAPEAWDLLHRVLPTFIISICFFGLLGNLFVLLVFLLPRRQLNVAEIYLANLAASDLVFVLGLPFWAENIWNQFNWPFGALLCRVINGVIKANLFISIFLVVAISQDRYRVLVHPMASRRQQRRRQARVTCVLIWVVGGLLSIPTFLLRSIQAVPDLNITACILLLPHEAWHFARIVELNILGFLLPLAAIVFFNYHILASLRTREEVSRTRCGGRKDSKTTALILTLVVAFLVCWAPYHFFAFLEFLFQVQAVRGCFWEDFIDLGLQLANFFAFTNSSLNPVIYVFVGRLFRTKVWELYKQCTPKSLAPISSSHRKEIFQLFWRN
The assay is described as follows: Functional study on the bradykinin receptor 1 (B1R), FLIPR Ca2+ assay, hB1R cells. The note with it: agonist Lys-Des-Arg9-bradykinin 0.5 nM, % inhibition compared with the maximum achievable inhibition; for inhibition at 10 µM: CHO-K1, test substance 10 μM, read-out: B1R Antagonism, human [10 μM] % Inhibition; for B1R Antagonism, human [10 μM] % Inhibition: test substance 10 μM, hB1R CHO K1 cells. The class given is cell-based. The method, boiled down: as §1

Molecules are shown by their SMILES.

By inhibition is commonly meant the change of the read-out against control, counted positive when it falls. In the case of `O=C(COCC1CCCCN1S(=O)(=O)c1c(Cl)cccc1Cl)N1CCN(c2ncc(Cl)cc2Cl)CC1` (stereo not drawn) [Example 551, 2-((1-(2,6-dichlorophenylsulfonyl)piperidin-2-yl)methoxy)-1-(4-(3,5-dichloropyridin-2-yl)piperazin-1-yl)ethanone], the figures for the inhibition at 10 µM in assay [1] and in assay [2] were 102% and 52.7%, respectively.
The matching figures for `O=C(COCC1CCCCN1S(=O)(=O)c1c(Cl)cccc1Cl)N1CCN(CCO)CC1` (stereo not drawn) [Example 552, 2-((1-(2,6-dichlorophenylsulfonyl)piperidin-2-yl)methoxy)-1-(4-(2-hydroxyethyl)piperazin-1-yl)ethanone]: 101% and 46.8%.
The matching figures for `O=C(COCC1CCCCN1S(=O)(=O)c1c(Cl)cccc1Cl)N1CCN(c2nc3ccccc3s2)CC1` (stereo not drawn) [Example 553, 1-(4-(benzo[d]thiazol-2-yl)piperazin-1-yl)-2-((1-(2,6-dichlorophenylsulfonyl)piperidin-2-yl)methoxy)ethanone]: 101% and 54.1%.
For `O=C(COCC1CCCCN1S(=O)(=O)c1c(Cl)cccc1Cl)N1CCN(c2nc3ccc(Cl)cc3s2)CC1` (stereo not drawn) [Example 554, 1-(4-(6-chlorobenzo[d]thiazol-2-yl)piperazin-1-yl)-2-((1-(2,6-dichlorophenylsulfonyl)piperidin-2-yl)methoxy)ethanone], in that order: 102% and 25.2%.
On to `CCN1CCN(c2ccc(NC(=O)COCC3CCCCN3S(=O)(=O)c3ccc(OC)cc3)cc2)CC1` (stereo not drawn) [Example 555, N-(4-(4-ethylpiperazin-1-yl)phenyl)-2-((1-(4-methoxyphenylsulfonyl)piperidin-2-yl)methoxy)acetamide], for which the inhibition at 10 µM was determined as 102% in assay [1] and 62.5% in assay [2].
As for `COc1ccc(S(=O)(=O)N2CCCCC2COCC(=O)Nc2ccc(N3CCOCC3)c3nonc23)cc1` (stereo not drawn) [Example 556, 2-((1-(4-methoxyphenylsulfonyl)piperidin-2-yl)methoxy)-N-(7-morpholinobenzo[c][1,2,5]oxadiazol-4-yl)acetamide], the inhibition at 10 µM in assay [1] worked out at 85.6%; in assay [2], 12.1%.
Take `COc1ccc(S(=O)(=O)N2CCCCC2COCC(=O)Nc2ccc(NC(=O)CN3CCCCC3)c(C)c2)cc1` (stereo not drawn) [Example 557, 2-((1-(4-methoxyphenylsulfonyl)piperidin-2-yl)methoxy)-N-(3-methyl-4-(2-(piperidin-1-yl)acetamideo)phenyl)acetamide]: in assay [1], the “B1R Antagonism, rat [10 μM] % Inhibition” value was 87.56%. In addition, the “B1R Antagonism, human [10 μM] % Inhibition” value in assay [2] stood at 29.73%.
As for `COc1ccc(S(=O)(=O)N2CCCCC2COCC(=O)N2CCN(CCOc3ccccc3)CC2)cc1` (stereo not drawn) [Example 558, 2-((1-(4-methoxyphenylsulfonyl)piperidin-2-yl)methoxy)-1-(4-(2-phenoxyethyl)piperazin-1-yl)ethanone], the results for the inhibition at 10 µM in assay [1] and in assay [2] were 103% and -3.53%, respectively.
`COc1cc(C)c(S(=O)(=O)N2CCCCC2COCC(=O)N2CCN(CCn3c(C)ccc3C)CC2)c(C)c1` (stereo not drawn) [Example 559, 1-(4-(2-(2,5-dimethyl-1H-pyrrol-1-yl)ethyl)piperazin-1-yl)-2-((1-(4-methoxy-2,6-dimethylphenylsulfonyl)piperidin-2-yl)methoxy)ethanone]: the inhibition at 10 µM in assay [1] worked out at 100%; in assay [2] it was 99.9%.
Regarding `COc1cc(C)c(S(=O)(=O)N2Cc3ccccc3CC2COCC(=O)N2CCN(CCCN(C)C)CC2)c(C)c1C` (stereo not drawn) [Example 560, 1-(4-(3-(dimethylamino)propyl)piperazin-1-yl)-2-((2-(4-methoxy-2,3,6-trimethylphenylsulfonyl)-1,2,3,4-tetrahydroisoquinolin-3-yl)methoxy)ethanone], the inhibition at 10 µM in assay [1] turned out to be 99.3%; in assay [2], 102%.
On to `COc1cc(C)c(S(=O)(=O)N2CCCCC2COCC(=O)N(CCCN(C)C)CCCN(C)C)c(C)c1` (stereo not drawn) [Example 561, N,N-bis(3-(dimethylamino)propyl)-2-((1-(4-methoxy-2,6-dimethylphenylsulfonyl)piperidin-2-yl)methoxy)acetamide], for which the inhibition at 10 µM in assay [1] was found to be 101%; in assay [2] it was 102%.
Consider `COc1cc(C)c(S(=O)(=O)N2Cc3ccccc3CC2COCC(=O)N2CCN(C3CCN(C)CC3)CC2)c(C)c1C` (stereo not drawn) [Example 562, 2-((2-(4-methoxy-2,3,6-trimethylphenylsulfonyl)-1,2,3,4-tetrahydroisoquinolin-3-yl)methoxy)-1-(4-(1-methylpiperidin-4-yl)piperazin-1-yl)ethanone], for which the inhibition at 10 µM in assay [1] worked out at 100%; in assay [2], 102%.
With `COc1cc(C)c(S(=O)(=O)N2Cc3ccccc3CC2COCC(=O)N2CCN(CC3CCN(C)CC3)CC2)c(C)c1C` (stereo not drawn) [Example 563, 2-((2-(4-methoxy-2,3,6-trimethylphenylsulfonyl)-1,2,3,4-tetrahydroisoquinolin-3-yl)methoxy)-1-(4-((1-methylpiperidin-4-yl)methyl)piperazin-1-yl)ethanone], the inhibition at 10 µM in assay [1] was 100%; in assay [2], 102%.
For `CN(C)CCCN1CCN(C(=O)COCC2CCCCN2S(=O)(=O)c2c(Cl)cccc2Cl)CC1` (stereo not drawn) [Example 564, 2-((1-(2,6-dichlorophenylsulfonyl)piperidin-2-yl)methoxy)-1-(4-(3-(dimethylamino)propyl)piperazin-1-yl)ethanone], the inhibition at 10 µM in assay [1] was 102%; in assay [2] it was 105%.
As for `CN1CCC(N2CCN(C(=O)COCC3CCCCN3S(=O)(=O)c3c(Cl)cccc3Cl)CC2)CC1` (stereo not drawn) [Example 565, 2-((1-(2,6-dichlorophenylsulfonyl)piperidin-2-yl)methoxy)-1-(4-(1-methylpiperidin-4-yl)piperazin-1-yl)ethanone], in assay [1], the “B1R Antagonism, rat [10 μM] % Inhibition” value is recorded as 102.52%. Besides, in assay [2], the “B1R Antagonism, human [10 μM] % Inhibition” value worked out at 104.82%.
With `CN(C)CCCN1CCN(C(=O)COCC2CCCN2S(=O)(=O)c2c(Cl)cccc2Cl)CC1` (stereo not drawn) [Example 566, 2-((1-(2,6-dichlorophenylsulfonyl)pyrrolidin-2-yl)methoxy)-1-(4-(3-(dimethylamino)propyl)piperazin-1-yl)ethanone], the inhibition at 10 µM in assay [1] and in assay [2] was 103% each time.
`CN1CCC(N2CCN(C(=O)COCC3CCCN3S(=O)(=O)c3c(Cl)cccc3Cl)CC2)CC1` (stereo not drawn) [Example 567, 2-((1-(2,6-dichlorophenylsulfonyl)pyrrolidin-2-yl)methoxy)-1-(4-(1-methylpiperidin-4-yl)piperazin-1-yl)ethanone]: the inhibition at 10 µM amounted to 102% in assay [1] and 104% in assay [2].
For `Cc1cc(S(=O)(=O)N2CCCCC2COCC(=O)N2CCN(Cc3ccccc3)CC2)c(C)cc1Cl` (stereo not drawn) [Example 568, 1-(4-benzylpiperazin-1-yl)-2-((1-(4-chloro-2,5-dimethylphenylsulfonyl)piperidin-2-yl)methoxy)ethanone], the inhibition at 10 µM in assay [1] came to 81.3%; in assay [2], 38.5%.
For the molecule `CN(C)CCCN1CCN(C(=O)COCC2CCCN2S(=O)(=O)c2c(Cl)cc(C(F)(F)F)cc2Cl)CC1` (stereo not drawn) [Example 569, 2-((1-(2,6-dichloro-4-(trifluoromethyl)phenylsulfonyl)pyrrolidin-2-yl)methoxy)-1-(4-(3-(dimethylamino)propyl)piperazin-1-yl)ethanone], the inhibition at 10 µM in assay [1] was 92.9%; in assay [2], 90%.
For `CN1CCC(N2CCN(C(=O)COCC3CCCN3S(=O)(=O)c3c(Cl)cc(C(F)(F)F)cc3Cl)CC2)CC1` (stereo not drawn) [Example 570, 2-((1-(2,6-dichloro-4-(trifluoromethyl)phenylsulfonyl)pyrrolidin-2-yl)methoxy)-1-(4-(1-methylpiperidin-4-yl)piperazin-1-yl)ethanone], the inhibition at 10 µM in assay [1] came to 98.1%; in assay [2] it was 97.7%.
The matching figures for `CN1CCC(N2CCN(C(=O)COCC3CCCCN3S(=O)(=O)c3ccccc3C(F)(F)F)CC2)CC1` (stereo not drawn) [Example 571, 1-(4-(1-methylpiperidin-4-yl)piperazin-1-yl)-2-((1-(2-(trifluoromethyl)phenylsulfonyl)piperidin-2-yl)methoxy)ethanone]: 100% and 104%.
